Data taken from patent publication US20240174637A1, “DEGRADERS OF GRK2 AND USES THEREOF” (Sonata Therapeutics, Inc., priority 2021, published 2024).
Counter-ions that a name gives are not always drawn. Like-named read-outs stand apart in the source and are kept apart here.

Columns and labels:
GRK2 [1] = target: T1, GRK2 (Homo sapiens, UniProt P25098); test: GRK2 Inhibition Assay (TR-FRET, Example 1); assay type: biochemical
T1 sequence (P25098 1-689): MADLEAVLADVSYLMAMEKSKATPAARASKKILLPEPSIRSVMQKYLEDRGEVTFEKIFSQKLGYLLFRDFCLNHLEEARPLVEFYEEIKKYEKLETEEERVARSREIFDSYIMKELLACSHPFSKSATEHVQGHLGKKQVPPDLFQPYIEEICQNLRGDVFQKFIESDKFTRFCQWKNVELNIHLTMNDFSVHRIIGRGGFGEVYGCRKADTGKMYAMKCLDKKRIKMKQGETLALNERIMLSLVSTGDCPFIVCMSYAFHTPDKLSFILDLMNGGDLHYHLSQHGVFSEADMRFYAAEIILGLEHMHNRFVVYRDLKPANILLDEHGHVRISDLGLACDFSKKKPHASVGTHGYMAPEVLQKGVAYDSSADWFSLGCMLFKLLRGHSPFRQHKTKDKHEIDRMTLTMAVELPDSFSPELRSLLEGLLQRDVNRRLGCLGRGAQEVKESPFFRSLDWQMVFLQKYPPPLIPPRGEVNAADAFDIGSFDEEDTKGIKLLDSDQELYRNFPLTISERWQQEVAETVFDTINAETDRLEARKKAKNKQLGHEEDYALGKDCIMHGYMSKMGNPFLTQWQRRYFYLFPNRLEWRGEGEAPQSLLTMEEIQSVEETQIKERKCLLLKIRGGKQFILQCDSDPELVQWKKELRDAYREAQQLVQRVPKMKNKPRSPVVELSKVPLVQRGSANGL
Method in brief: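 TR-FRET phosphorylation readout: Eu anti-TopoIIα antibody with EDTA added after a 90 min RT kinase reaction of 1 nM GRK2, 7 μM ATP and 50 nM ULight-TopoIIα. Compounds were pre-incubated with enzyme 30 min at room temperature beforehand.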

PAXF1657 EV = test: 7-day cellular proliferation assay (CellTiter-Glo), PAXF1657 EV; assay type: cell-based
Method in brief: (§1)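 Viability by CellTiter-Glo after 7 days at 37° C., with compound-containing media replaced on day 3. Cells (500/well, RPMI1640 + 10% FBS) were PAXF1657 pairs: GRK2 overexpression vs empty vector, or CRISPR GRK2 knockout vs non-targeting clones; doses 30 μM-0.0002 μM final, 10 points, 0.3% DMSO.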

PAXF1657 KO Clone #4 = test: 7-day cellular proliferation assay (CellTiter-Glo), PAXF1657 KO Clone #4; assay type: cell-based
Method in brief: as §1

GRK2 [2] = target: T1, GRK2; test: GRK2 Degradation Assay and Western Blot in PAXF1657 cells; assay type: cell-based; set-up: endogenous in cells; host or cells: PAXF1657
Method in brief: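 GRK2 degradation judged by immunoblot: NP40 lysates separated by SDS-PAGE and probed for GRK2 and β-actin, with HRP/ECL detection. Lysates came from PAXF1657 cells exposed to 0–10 μM compound for 6–24 h after reaching 70% confluency.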

[3] = Table 4, Example 1 assay, read-out: Enzymatic GRK2 IC50: Av IC50 GRK2
[4] = proliferation, read-out: GeoMean IC50 (UM) PAXF1657 EV
[5] = proliferation, read-out: GeoMean IC50 (uM) PAXF1657 KO Clone #4
[6] = Conc 0.3 uM, read-out: Degradation Assay - 3 point: Degradation (%)
[7] = Conc 1 uM, read-out: Degradation Assay - 3 point: Degradation (%)
[8] = Conc 3 uM, read-out: Degradation Assay - 3 point: Degradation (%)
[9] = TR-FRET, 7 μM ATP, read-out: Enzymatic GRK2 Assay: IC50 (nM) (Example 1)
[10] = 168 h, 7-day, read-out: 7-day proliferation assay: IC50 GeoMean (uM) [Cell Line: PAXF1657 EV]
[11] = 168 h, 7-day, read-out: 7-day proliferation assay: IC50 GeoMean (uM) [Cell Line: PAXF1657 KO Clone #4]
[12] = 1 uM, PAXF1657 EV, 24 hrs, read-out: % GRK2 degradation at 1 uM in PAXF1657 EV (24 hrs)
[13] = 3 uM, PAXF1657 EV, 24 hrs, read-out: % GRK2 degradation at 3 uM in PAXF1657 EV (24 hrs)

Compound	IC50 (GRK2 [1]; [3]) [nM]	IC50 (PAXF1657 EV; [4]) [µM]	IC50 (PAXF1657 KO Clone #4; [5]) [µM]	inhibition at 0.3 µM (GRK2 [2]; [6]) [%]	inhibition at 1 µM (GRK2 [2]; [7]) [%]	inhibition at 3 µM (GRK2 [2]; [8]) [%]	IC50 (GRK2 [1]; [9]) [nM]	IC50 (PAXF1657 EV; [10]) [µM]	IC50 (PAXF1657 KO Clone #4; [11]) [µM]	inhibition at 1 µM (GRK2 [2]; [12]) [%]	inhibition at 3 µM (GRK2 [2]; [13]) [%]	inhibition at 0.3 µM (GRK2 [2]; 0.3 uM, PAXF1657 EV, 24 hrs, read-out: % GRK2 degradation at 0.3 uM in PAXF1657 EV (24 hrs)) [%]	DC50 (GRK2 [2]; PAXF1657, 24 h, read-out: Degradation Assay - Full Dose Response: IC50 (uM) [cell line: PAXF1657, time point: 24 h]) [µM]
C[C@@H](NC(=O)c1cccc(NCc2nnc(-c3ccncn3)n2C)c1)c1cccc(OCCCCCOCCCOCCNc2ccc3c(c2)CN(C2CCC(=O)NC2=O)C3=O)c1 (stereo partly drawn) [Compound D171, N-((1R)-1-(3-(5-(3-(2-(2-(2,6-dioxopiperidin-3-yl)-1-oxoisoindolin-5-ylamino)ethoxy)propoxy)pentyloxy)phenyl)ethyl)-3-((4-methyl-5-(pyrimidin-4-yl)-4H-1,2,4-triazol-3-yl)methylamino)benzamide]	28.7	0.09	> 30	89.7	90.6	76.2	–	–	–	–	–	–	–
CN[C@@H](C)C(=O)N[C@H](C(=O)N1CCC[C@H]1c1nc(C(=O)c2cccc(OCc3cn(CCCCCCOc4cccc(CNC(=O)c5cccc(NCc6nnc(-c7ccncn7)n6C)c5)c4)nn3)c2)cs1)C1CCCCC1 [Compound D102, N-(3-((6-(4-((3-(2-((S)-1-((S)-2-cyclohexyl-2-((S)-2-(methylamino)propanamido)acetyl)pyrrolidin-2-yl)thiazole-4-carbonyl)phenoxy)methyl)-1H-1,2,3-triazol-1-yl)hexyl)oxy)benzyl)-3-(((4-methyl-5-(pyrimidin-4-yl)-4H-1,2,4-triazol-3-yl)methyl)amino)benzamide]	–	–	–	–	–	–	< 100	< 1	1 to 10	70	73	–	–
C[C@@H](NC(=O)c1cccc(NCc2nnc(-c3ccncn3)n2C)c1)c1cccc(OCC(=O)N2CCN(c3ccc4c(c3)CN(C3CCC(=O)NC3=O)C4=O)CC2)c1 (stereo partly drawn) [Compound D176, N-((1R)-1-(3-(2-(4-(2-(2,6-dioxopiperidin-3-yl)-1-oxoisoindolin-5-yl)piperazin-1-yl)-2-oxoethoxy)phenyl)ethyl)-3-((4-methyl-5-(pyrimidin-4-yl)-4H-1,2,4-triazol-3-yl)methylamino)benzamide]	24.1	8.02	> 30	33	24.4	10.7	–	–	–	–	–	–	–
Cc1ncsc1-c1ccc(CNC(=O)[C@@H]2C[C@@H](O)CN2C(=O)[C@@H](NC(=O)CCCCc2cn(CCCCCOc3cccc(CNC(=O)c4cccc(NCc5nnc(-c6ccncn6)n5C)c4)c3)nn2)C(C)(C)C)cc1 [Compound D80]	–	–	–	–	–	–	< 100	> 10	> 10	0	23	6	–
C[C@@H](NC(=O)c1cccc(NCc2nnc(-c3ccncn3)n2C)c1)c1ccc(OCCCCCCOCCOCCOCCCC(=O)N2CCN(c3ccc4c(c3)CN(C3CCC(=O)NC3=O)C4=O)CC2)cc1 (stereo partly drawn) [Compound D124, N-((1R)-1-(4-(6-(2-(2-(4-(4-(2-(2,6-dioxopiperidin-3-yl)-1-oxoisoindolin-5-yl)piperazin-1-yl)-4-oxobutoxy)ethoxy)ethoxy)hexyloxy)phenyl)ethyl)-3-((4-methyl-5-(pyrimidin-4-yl)-4H-1,2,4-triazol-3-yl)methylamino)benzamide]	5.4	0.09	> 30	80.5	90.7	89.3	–	–	–	–	–	–	0.1
C[C@@H](NC(=O)c1cccc(NCc2nnc(-c3ccncn3)n2C)c1)c1ccc(OCCN2CCN(c3ccc4c(c3)CN(C3CCC(=O)NC3=O)C4=O)CC2)cc1 (stereo partly drawn) [Compound D174, N-((1R)-1-(4-(2-(4-(2-(2,6-dioxopiperidin-3-yl)-1-oxoisoindolin-5-yl)piperazin-1-yl)ethoxy)phenyl)ethyl)-3-((4-methyl-5-(pyrimidin-4-yl)-4H-1,2,4-triazol-3-yl)methylamino)benzamide hydrochloride]	12	< 0.000458	> 30	63.6	50.2	28.3	–	–	–	–	–	–	–
